Results: patent publication US20260306640A1, “TECHNOLOGIES TARGETING CELL STATES” (Auron Therapeutics, Inc., priority 2023, published 2026)

Columns and labels:
[1] = Tolerability / body weight relative to starting weight in nude Balb/c mice bearing H1048 tumors; format: in vivo; details: once per week i.p.; 30 mg/kg; FIG. 1 (D), (E)
Description: (§1) FIG. 1. Provided compounds can provide various activities including inhibiting tumor growth in vivo. (A): Provided compounds can inhibit tumor growth in vivo. Nude Balb/c mice were inoculated with NCI-H1048 cells in Matrigel. Tumors were allowed to grow up to about 200 mm^3 and mice were then randomized into two groups. Mice were dosed intraperitoneally (i.p.) once per week with vehicle or 30 mg/kg compound 22. Tumor size was measured every three to four days and mice were sacrificed once vehicle tumors reached 2000 mm^3. Error bar is SEM. Dosing started at day 17 post tumor inoculation. (B): Provided technologies can reduce KAT2A and KAT2B levels and histone acetylation levels. […] Vehicle is DMSO. […] Cell count data relative to DMSO control after 8 days of treatment with compound 22 are presented as examples to confirm inhibition. GI50=6 nM. (D): Provided technologies can inhibit tumor growth in vivo. Nude balb/c mice inoculated with H1048 tumors were dosed intraperitoneally once per week (qw i.p.) with vehicle (HbCD) or compound 22. Average tumor volumes+/−SEM from 6 mice are represented. […] See also (A). […] Certain body weights relative to starting weight are presented as examples to confirm tolerability and safety. (F): Provided technologies can reduce KAT2A and KAT2B levels and histone acetylation levels in tumor in vivo. […]

[2] = target: T1, KAT2A (Homo sapiens, UniProt Q92830); assay: Western blot of KAT2A level in NCI-H1048 cells, 24 h; format: cell-based; set-up: degrader, Western blot; details: various concentrations, FIG. 1 (B)
Description: as §1

[3] = system: histone acetylation; assay: Western blot of histone acetylation in NCI-H1048 cells, 24 h; format: cell-based; details: various concentrations, FIG. 1 (B)
Description: as §1

[4] = target: KAT2B (Homo sapiens, UniProt Q92831); assay: KAT2B degradation, Western Blot, MOLM-13 cells; format: cell-based; set-up: degrader, Western blot
Description: MOLM-13 cells were maintained at 37° C. in 5% CO2 and 90% humidity in RPMI 1640 supplemented with 20% fetal bovine serum (FBS) and 1× penicillin/streptomycin. Cells were plated in full media at 1-2 million cells/2 mL in a 6-well tissue culture treated plate with or without compounds for 24 h at 37° C. in 5% CO2.
MOLM-13 cells or NCI-H1048 cells were washed with PBS, then lysed with RIPA buffer containing 1×protease and phosphatase inhibitors (SantaCruz Biotechnologies Cat #sc-24948A). Protein was isolated by centrifugation at 12,000×g for 10 minutes at 4° C. and supernatant was collected. Protein was quantified via Bradford assay. Samples were diluted to 4 μg lysate in 16 μL RIPA buffer and then 4 μL of Jess Sample Buffer. Samples were heated at 95° C. for 5 minutes. Samples were loaded onto 12-230 kDa Jess™ Separation Module, 8×25 capillary cartridges (SM-W004, Biotechne). Antibodies loaded were: Primary antibody for KAT2A (GCN5L2 (C26A10) Rabbit mAb (3305, CST)) and for KAT2B (PCAF (C14G9)) Rabbit mAb (3378, CST) at 1:1000 and Anti-Rabbit Detection Module for Jess™ (Cat No #DM-001, Biotechne). Signal was detected by chemiluminescence.
DC50 values were determined from percent reduction of protein as compared to the DMSO control.

[5] = system: epithelial GSEA; assay: Epithelial GSEA in NCI-H1048 tumors of treated mice; format: in vivo; details: tumors treated as compared to vehicle; FIG. 1 (G)
Description: as §1

[6] = target: T1, KAT2A; assay: Western blot of KAT2A level in acute myeloid leukemia MOLM-13 cells, 48 h; format: cell-based; set-up: degrader, Western blot; details: FIG. 2 (A)
Description: FIG. 2. Provided compounds can provide various activities. (A): Provided technologies can reduce KAT2A and KAT2B levels and histone acetylation levels. […] Cell count data after 8 days of treatment with compound 22 relative to DMSO control are presented as examples to confirm inhibition. […] (C): Provided technologies can modulate cell states and induce differentiation. […] EC50=0.3 nM.

[7] = system: histone acetylation (e.g., AcH3K9); assay: Histone H3K9 acetylation (AcH3K9), Western Blot, MOLM-13 cells; format: cell-based; details: FIG. 2
Description: In some embodiments, an assessment is performed using cells. In some embodiments, cells were treated with various compounds before assessing KAT2A and/or KAT2B levels, histone (e.g., H3K9) acetylation levels, cell states, growth, etc.
Western Blot: In some assessments, MOLM13, NCI-H1048, LASCPC-01 and NEPC organoid cells were treated with compounds at certain concentrations for certain periods of time, and cell pellets were lysed by adding 1-part 4×laemmli Sample buffer (e.g., Bio-Rad Catalog #1610747) along with Mercaptoethanol (e.g., Bio-Rad Catalog #1610710) according to manufacturer's instructions, and 1-part RIPA buffer with 2×protease and phosphatase inhibitor. The samples were sonicated 30% amplitude, 35 seconds on and 35 seconds off for 1 cycle and boiled at 95° C. for 5 minutes. 30-35 μL of samples were loaded on a 4-15% Criterion™ TGX Stain-Free™ Protein Gel (Bio-rad, 5678084). In some assessments, NCI-H1048 flash frozen tumor pieces were resuspended in RIPA buffer and homogenized on TissueLyser II with steel beads at 30 Hz for 3 minutes. Samples were then centrifuged at […] at 4° C. for 15 minutes. BCA protein determination was performed and samples normalized for 1.95 ug/uL. 19.5 uL were loaded and run on similar gels as cell pellets. […]

Chain of KAT2B (Q92831 whole entry): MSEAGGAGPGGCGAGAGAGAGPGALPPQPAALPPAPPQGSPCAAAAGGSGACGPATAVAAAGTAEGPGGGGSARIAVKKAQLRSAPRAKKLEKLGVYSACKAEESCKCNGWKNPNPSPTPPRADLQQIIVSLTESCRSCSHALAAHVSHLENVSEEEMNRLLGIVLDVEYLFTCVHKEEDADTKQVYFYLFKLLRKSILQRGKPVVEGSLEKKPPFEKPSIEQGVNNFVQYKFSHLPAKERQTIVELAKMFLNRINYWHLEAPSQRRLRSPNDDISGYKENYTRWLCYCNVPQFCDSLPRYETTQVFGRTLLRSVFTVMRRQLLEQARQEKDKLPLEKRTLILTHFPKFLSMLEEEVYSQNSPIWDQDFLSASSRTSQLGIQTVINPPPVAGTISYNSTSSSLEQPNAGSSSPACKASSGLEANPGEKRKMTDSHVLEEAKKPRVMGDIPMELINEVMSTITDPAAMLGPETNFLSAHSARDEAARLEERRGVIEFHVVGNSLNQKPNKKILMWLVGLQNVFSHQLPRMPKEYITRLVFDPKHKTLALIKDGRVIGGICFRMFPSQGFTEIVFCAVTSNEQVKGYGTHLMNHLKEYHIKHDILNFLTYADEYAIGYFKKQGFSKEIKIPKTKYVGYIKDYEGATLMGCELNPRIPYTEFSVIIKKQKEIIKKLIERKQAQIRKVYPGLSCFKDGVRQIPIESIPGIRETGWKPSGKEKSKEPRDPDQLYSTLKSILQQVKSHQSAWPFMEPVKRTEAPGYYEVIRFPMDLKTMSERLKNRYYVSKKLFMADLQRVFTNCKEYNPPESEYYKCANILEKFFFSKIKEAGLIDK
T1 sequence (Q92830 whole entry): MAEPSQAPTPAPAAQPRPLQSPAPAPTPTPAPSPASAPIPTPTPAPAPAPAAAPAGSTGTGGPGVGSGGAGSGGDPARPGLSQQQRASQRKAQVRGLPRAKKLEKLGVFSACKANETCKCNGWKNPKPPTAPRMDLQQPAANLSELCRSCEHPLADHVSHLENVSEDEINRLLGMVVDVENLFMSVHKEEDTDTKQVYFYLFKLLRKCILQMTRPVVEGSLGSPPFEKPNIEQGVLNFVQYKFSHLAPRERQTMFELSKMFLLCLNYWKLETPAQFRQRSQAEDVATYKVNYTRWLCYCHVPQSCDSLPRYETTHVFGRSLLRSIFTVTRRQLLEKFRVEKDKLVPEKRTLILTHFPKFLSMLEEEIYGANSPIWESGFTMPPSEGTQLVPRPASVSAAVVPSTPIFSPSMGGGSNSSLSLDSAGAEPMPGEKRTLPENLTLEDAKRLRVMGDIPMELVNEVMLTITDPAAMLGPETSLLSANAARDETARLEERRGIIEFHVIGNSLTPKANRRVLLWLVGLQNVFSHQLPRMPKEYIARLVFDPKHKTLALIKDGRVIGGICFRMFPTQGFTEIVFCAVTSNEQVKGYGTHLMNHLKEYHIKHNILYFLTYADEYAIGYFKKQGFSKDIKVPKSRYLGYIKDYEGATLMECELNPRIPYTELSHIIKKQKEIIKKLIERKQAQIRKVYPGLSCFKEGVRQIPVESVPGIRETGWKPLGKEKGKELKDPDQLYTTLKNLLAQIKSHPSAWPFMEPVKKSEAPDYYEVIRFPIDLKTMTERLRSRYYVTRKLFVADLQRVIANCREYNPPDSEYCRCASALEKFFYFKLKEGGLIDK

reduction of KAT2A level [2]: confirm such reduction
EC90 ([4]; 24 h, MOLM-13, KAT2B, read-out: DC90 (the source's name)): 3.6 nM
DC50 ([4]; MOLM-13, KAT2B): 0.43 nM
KAT2B levels ([4]; MOLM-13 cells, FIG. 2): potently reduce KAT2A and KAT2B levels
reduction of KAT2A level [6]: confirm such reduction
SMILES: CN1C[C@H](Nc2cnn(C)c(=O)c2Br)C[C@H](c2ccc(C(=O)N3CCC(CN4CCN(c5ccc6c(c5)CN(C5CCC(=O)NC5=O)C6=O)CC4)CC3)cc2)C1 (stereo partly drawn) [Compound 22, 3-(5-(4-((1-(4-((3R,5R)-5-((5-bromo-1-methyl-6-oxo-1,6-dihydropyridazin-4-yl)amino)-1-methylpiperidin-3-yl)benzoyl)piperidin-4-yl)methyl)piperazin-1-yl)-1-oxoisoindolin-2-yl)piperidine-2,6-dione]
tolerability (body weights relative to starting weight) [1]: well tolerated
reduction of histone acetylation level [3]: confirm such reduction
epithelial GSEA [5]: significant upregulation
histone acetylation (e.g., AcH3K9) levels [7]: reduce histone acetylation (e.g., AcH3K9) levels
